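Test compounds were applied to cells in 96-well plates for 48 hours at 5 doses. GI50 marks 50% less growth.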 The source made the active and inactive calls. Rule as the data show it: active = GI50 up to about 1.1 µM and inactive = higher.
Tests used:
Assay in all cases: NCI-60 cell line screen, 48 h
MDA-MB-231 = tested on: MDA-MB-231
MDA-MB-435 = tested on: MDA-MB-435
HOP-92 = tested on: HOP-92
A549 = tested on: A549
OVCAR-4 = tested on: OVCAR-4
MCF7 = tested on: MCF7
UACC-62 = tested on: UACC-62
NCI-H522 = tested on: NCI-H522
EKVX = tested on: EKVX
HL-60 = tested on: HL-60
OVCAR-3 = tested on: OVCAR-3
ACHN = tested on: ACHN
RPMI-8226 = tested on: RPMI-8226
M14 = tested on: M14
CCRF-CEM = tested on: CCRF-CEM
T47D = tested on: T47D
K562 = tested on: K562
OVCAR-8 = tested on: OVCAR-8
HCT-116 = tested on: HCT-116

SMILES | GI50 (MDA-MB-231) | GI50 (MDA-MB-435) | GI50 (HOP-92) | GI50 (A549) | GI50 (OVCAR-4) | GI50 (MCF7) | GI50 (UACC-62) | GI50 (NCI-H522) | GI50 (EKVX) | GI50 (HL-60) | GI50 (OVCAR-3) | GI50 (ACHN) | GI50 (RPMI-8226) | GI50 (M14) | GI50 (CCRF-CEM) | GI50 (T47D) | GI50 (K562) | GI50 (OVCAR-8) | GI50 (HCT-116)
Clc1ccc(OCC2NC3CCC2CC3)cn1 (centres undefined) | 19.1 µM (inactive) | 20.4 µM (inactive) | 35.4 µM (inactive) | 37.9 µM (inactive) | 37.9 µM (inactive) | 17.9 µM (inactive) | 17.7 µM (inactive) | 19 µM (inactive) | 26.3 µM (inactive) | 24.4 µM (inactive) | 60.4 µM (inactive) | 33.3 µM (inactive) | 13.4 µM (inactive) | 21.2 µM (inactive) | 25 µM (inactive) | 29.8 µM (inactive) | 17.5 µM (inactive) | 31.5 µM (inactive) | 20.7 µM (inactive)
COC(=O)C1C(OC(=O)c2ccccc2)CC2CCC1N2C(N)=O (centres undefined) | > 100 µM (inactive) | > 100 µM (inactive) | > 100 µM (inactive) | > 100 µM (inactive) | > 100 µM (inactive) | > 100 µM (inactive) | > 100 µM (inactive) | > 100 µM (inactive) | > 100 µM (inactive) | > 100 µM (inactive) | > 100 µM (inactive) | > 100 µM (inactive) | > 100 µM (inactive) | > 100 µM (inactive) | > 100 µM (inactive) | > 100 µM (inactive) | > 100 µM (inactive) | > 100 µM (inactive) | > 100 µM (inactive)
N#Cc1ccc(OC(=O)c2ccc(NC(=N)N)cc2)cc1.c1ccncc1 | > 100 µM (inactive) | 67.8 µM (inactive) | 93.5 µM (inactive) | > 100 µM (inactive) | > 100 µM (inactive) | 39.9 µM (inactive) | > 100 µM (inactive) | 30 µM (inactive) | > 100 µM (inactive) | 60.1 µM (inactive) | 30.1 µM (inactive) | > 100 µM (inactive) | 40.8 µM (inactive) | > 100 µM (inactive) | 22.2 µM (inactive) | 42.5 µM (inactive) | 42 µM (inactive) | > 100 µM (inactive) | 59.3 µM (inactive)
Cc1cc2nc(CC(C(F)(F)F)C(F)(F)F)oc2cc1C | 2.45 µM (inactive) | 1.96 µM (inactive) | 7.5 µM (inactive) | 5.79 µM (inactive) | 2.19 µM (inactive) | 2.54 µM (inactive) | 1.42 µM (inactive) | 0.184 µM (active) | 2.24 µM (inactive) | 0.968 µM (active) | 2.65 µM (inactive) | 7.26 µM (inactive) | 0.0931 µM (active) | 1.07 µM (active) | 0.016 µM (active) | 0.308 µM (active) | 0.0931 µM (active) | 1.12 µM (active) | 1 µM (active)
O=C(O)c1ccc(C2=Nc3cccc4cccc(c34)N2)cc1 | > 100 µM (inactive) | > 100 µM (inactive) | 45.6 µM (inactive) | > 100 µM (inactive) | > 100 µM (inactive) | > 100 µM (inactive) | > 100 µM (inactive) | 82.6 µM (inactive) | > 100 µM (inactive) | 19.6 µM (inactive) | > 100 µM (inactive) | > 100 µM (inactive) | > 100 µM (inactive) | > 100 µM (inactive) | 24.7 µM (inactive) | 57.9 µM (inactive) | > 100 µM (inactive) | > 100 µM (inactive) | > 100 µM (inactive)
Cc1ccc(C(=O)O)c(CC2Cc3c(C)cccc3C2=O)c1 (centres undefined) | > 100 µM (inactive) | > 100 µM (inactive) | > 100 µM (inactive) | > 100 µM (inactive) | > 100 µM (inactive) | > 100 µM (inactive) | > 100 µM (inactive) | > 100 µM (inactive) | > 100 µM (inactive) | > 100 µM (inactive) | > 100 µM (inactive) | > 100 µM (inactive) | > 100 µM (inactive) | > 100 µM (inactive) | > 100 µM (inactive) | > 100 µM (inactive) | > 100 µM (inactive) | > 100 µM (inactive) | > 100 µM (inactive)
C/C(=N\NC(=S)N1CCN(C)CC1)c1nc2cccnc2[nH]1 | > 100 µM (inactive) | > 100 µM (inactive) | > 100 µM (inactive) | > 100 µM (inactive) | > 100 µM (inactive) | 20.4 µM (inactive) | > 100 µM (inactive) | > 100 µM (inactive) | > 100 µM (inactive) | > 100 µM (inactive) | > 100 µM (inactive) | > 100 µM (inactive) | > 100 µM (inactive) | > 100 µM (inactive) | > 100 µM (inactive) | 52.1 µM (inactive) | 92.3 µM (inactive) | > 100 µM (inactive) | –
COc1cc(O)c(C(=O)/C=C/c2ccc(O)cc2)cc1Oc1ccc(C(=O)/C=C/c2ccc(O)cc2)c(O)c1 [RHUSCHALCONE IV] | 3.6 µM (inactive) | 3.4 µM (inactive) | 4.36 µM (inactive) | 2.96 µM (inactive) | 2.22 µM (inactive) | 2.69 µM (inactive) | 2.33 µM (inactive) | 1.94 µM (inactive) | 2.27 µM (inactive) | 3.65 µM (inactive) | 2.87 µM (inactive) | 2.4 µM (inactive) | 2.34 µM (inactive) | 3.9 µM (inactive) | 2.66 µM (inactive) | 2.29 µM (inactive) | 3.39 µM (inactive) | 2.59 µM (inactive) | 1.8 µM (inactive)
O=C1Oc2ccccc2C(=O)/C1=C/NC(=S)NCCc1ccccc1 | 37.8 µM (inactive) | 48.6 µM (inactive) | 23.7 µM (inactive) | 49 µM (inactive) | 34.9 µM (inactive) | 56.1 µM (inactive) | 26.9 µM (inactive) | 23.3 µM (inactive) | 63.7 µM (inactive) | 1.85 µM (inactive) | 67.1 µM (inactive) | 19.2 µM (inactive) | 35.2 µM (inactive) | 55 µM (inactive) | 27.9 µM (inactive) | 35.1 µM (inactive) | > 100 µM (inactive) | 29.2 µM (inactive) | 33.3 µM (inactive)
COc1c(C)c2c(c(=O)c3c(C)cccc3n2C)c2c1c(=O)c1c(C)cccc1n2C | > 10 µM (inactive) | > 10 µM (inactive) | > 10 µM (inactive) | > 10 µM (inactive) | > 10 µM (inactive) | > 10 µM (inactive) | > 10 µM (inactive) | > 10 µM (inactive) | > 10 µM (inactive) | > 10 µM (inactive) | > 10 µM (inactive) | > 10 µM (inactive) | 9.27 µM (inactive) | > 10 µM (inactive) | > 10 µM (inactive) | > 10 µM (inactive) | > 10 µM (inactive) | 9.66 µM (inactive) | > 10 µM (inactive)
O=C1Nc2ccccc2/C1=N/NC(=S)Nc1ccc(Cl)cc1 | 26.7 µM (inactive) | 39.8 µM (inactive) | 51.4 µM (inactive) | 34.6 µM (inactive) | 30.4 µM (inactive) | 48.6 µM (inactive) | 50.7 µM (inactive) | 57 µM (inactive) | 36.2 µM (inactive) | 39 µM (inactive) | 25.8 µM (inactive) | 25.6 µM (inactive) | 49.7 µM (inactive) | 15 µM (inactive) | 22.8 µM (inactive) | 83 µM (inactive) | 29.9 µM (inactive) | 18.2 µM (inactive) | 24.9 µM (inactive)
COC(OC)C1(c2ccccc2)Oc2ccccc2C1=O (centres undefined) | > 100 µM (inactive) | > 100 µM (inactive) | > 100 µM (inactive) | > 100 µM (inactive) | > 100 µM (inactive) | > 100 µM (inactive) | > 100 µM (inactive) | > 100 µM (inactive) | > 100 µM (inactive) | > 100 µM (inactive) | > 100 µM (inactive) | > 100 µM (inactive) | > 100 µM (inactive) | > 100 µM (inactive) | > 100 µM (inactive) | > 100 µM (inactive) | 65.2 µM (inactive) | > 100 µM (inactive) | > 100 µM (inactive)
COC(=O)Nc1nc2cc(S(=O)(=O)n3nnc4ccccc43)ccc2[nH]1 | 43.5 µM (inactive) | > 100 µM (inactive) | 14.5 µM (inactive) | > 100 µM (inactive) | > 100 µM (inactive) | 28.1 µM (inactive) | 41.5 µM (inactive) | 36.8 µM (inactive) | > 100 µM (inactive) | 66.2 µM (inactive) | > 100 µM (inactive) | 59.4 µM (inactive) | 0.708 µM (active) | > 100 µM (inactive) | > 100 µM (inactive) | 37.8 µM (inactive) | > 100 µM (inactive) | > 100 µM (inactive) | 53.8 µM (inactive)
O=c1c2ccccc2nc(-c2ccccc2)n1/N=C/c1ccccc1[N+](=O)[O-] | 17.7 µM (inactive) | > 100 µM (inactive) | 29.2 µM (inactive) | > 100 µM (inactive) | > 91.2 µM (inactive) | > 78.2 µM (inactive) | 79.6 µM (inactive) | > 53.2 µM (inactive) | > 51.1 µM (inactive) | > 100 µM (inactive) | > 100 µM (inactive) | 27.8 µM (inactive) | > 100 µM (inactive) | > 100 µM (inactive) | > 100 µM (inactive) | 86.9 µM (inactive) | > 100 µM (inactive) | > 46.2 µM (inactive) | 40.5 µM (inactive)
CCN(CC)C1Oc2cc3c(cc2C(c2cc(OC)c(O)c(OC)c2)C1C)OCO3 (centres undefined) | 18.8 µM (inactive) | 2.14 µM (inactive) | 15.5 µM (inactive) | 11.7 µM (inactive) | 22.3 µM (inactive) | 4.85 µM (inactive) | 4.49 µM (inactive) | 3.1 µM (inactive) | 36.8 µM (inactive) | 2.69 µM (inactive) | 7.21 µM (inactive) | 18.3 µM (inactive) | 7.14 µM (inactive) | 4.69 µM (inactive) | 7.29 µM (inactive) | 16.8 µM (inactive) | 2.98 µM (inactive) | 14.8 µM (inactive) | 4.53 µM (inactive)
